Patent US10954269B2, “Anti-inflammatory tripeptides” (Dr. August Wolff Gmbh & Co. KG Arzneimittel, priority 2013, dated 2021)
[ ]: non-standard residue; d: D form. Aib = CC(C)(N)C(=O)O

How the values were obtained:
[1] = tested on: human keratinocyte cell line (HaCaT); experiment: Cytokine secretion on protein level in activated human keratinocyte cell line HaCaT (13-plex FACS / Luminex, supernatant); type: cell-based; conditions: for IL-1 cytokine concentration / IL-2 cytokine concentration / IL-4 cytokine concentration / IL-5 cytokine concentration / IL-6 cytokine concentration / IL-9 cytokine concentration / IL-10 cytokine concentration / IL-12p70 cytokine concentration / IL-13 cytokine concentration / IL-17 cytokine concentration / IL-22 cytokine concentration / TNF-α cytokine concentration / IFN-γ cytokine concentration: substance 10^−9M
Procedure, shortened: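 Cytokine protein in supernatant is read by multiplex FACS or Luminex. Tripeptide-treated HaCaT cells or blood-derived human T-cells are stimulated beforehand with PMA/Ionomycin or IFN-γ. The most relevant analytes are IL-1, IL-2, IL-6, IL-12p70, IL-17, IFN-γ and TNF-α, sampled 48 h and 72 h after stimulation.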

Balb/c mice = experiment: Imiquimod-induced psoriasis in mice; type: in vivo; conditions: i.v.
Procedure: Psoriasis in Balb/c mice is induced by daily application of topical Imiquimod for 8 days. Animal are treated with the test items (topical or systemically). On day 9 the skin phenotype is characterized using a clinical score system (0=normal mouse skin; 1=mild reddening; 2=erythema; 3=erythema, swelling; 4=erythema, swelling, scaling; 5=erythema, swelling, scaling, (bloody) lesions). Skin is analyzed histologically. Lymph nodes are analyzed by flow cytometry and RT-qPCR. mRNA expression in lesional skin is analyzed by RT-qPCR. Cytokine concentrations in the serum are assessed using the Luminex technology.

primary human T cells = experiment: Gene expression of pro-inflammatory cytokines (RT-qPCR) in primary human T cells; type: cell-based; conditions: RT-qPCR
Excerpt: Cells were activated with PMA/Ionomycin and treated with PBS, α-MSH, K(D)PT and Examples 3, 8 and 9, respectively, at a concentration of 10^−9 M. Values are normalized to β-actin and are shown relative to the gene expression in PBS-stimulated cells.
Primary T-cells were isolated from peripheral blood from healthy volunteers and from secondary lymphatic organs from naïve C57BL/6 mice, respectively. The cells were stimulated with phorbol-12-myristate-13-acetate (PMA)/Ionomycin and interferon-gamma (IFN-γ), respectively, for 48 h to activate the cells. The activated cells release pro-inflammatory cytokines. In parallel a human (HaCaT) keratinocyte cell line was activated with PMA/Ionomycin and IFN-γ, respectively, too. […] At the same time release of anti-inflammatory IL-10 was inhibited. Two days after addition of PMA/Ionomycin and IFN-γ, respectively, the induction of IL-1 secretion was determined in the supernatant for proving that the cells are activated. […] The anti-inflammatory properties of the tripeptides were determined 48 h and 72 h following stimulation. A 13-plex-system based FACS analysis was used for showing the reduced secretion of pro-inflammatory cytokines in the supernatant. Data for IL-1, IL-2, IL-6, IL-12p70 IL-17, IFN-γ and TNF-α are considered to be most relevant. Thus, analysis of the anti-inflammatory properties of the tripeptides is preferably based on the results obtained for these analytes. […] Using this method the gene expression of pro-inflammatory markers like IL-6, IL-17, IFN-γ and TNF-α was determined.
In a third experiment murine and human T cells and HaCaT cells were stimulated with PMA/Ionomycin and treated with Examples 14, 15, 16 and 17 at 10^−7 M, 10^−9 M and 10^−11 M. Cytokine concentrations (IFN-γ, IL-17 and IL-10 for T cells and IFN-γ for HaCat) were assessed in the supernatants using the Luminex technology. Expression of genes coding for Il-1β, IL-6 and TNF-α was determined. […] Moreover, concentrations of pro-inflammatory cytokines IFN-γ and IL-17 was reduced in the supernatants whereas the concentration of anti-inflammatory cytokine IL-10 was increased.

C57BL/6 mice = experiment: Vasculitis model in mice (LPS / TNF-α intradermal); type: in vivo; conditions: s.c.
Procedure: C57BL/6 mice receive an intradermal injection of LPS. On the following day vasculitis is induced by intradermal injection of TNF-α. In addition Evan's blue is injected. 24 hours following the injection of TNF-α mice are scarified. Ear thickness is measured and the degree of vasculitis is assessed by counting petechiae. The content of Evan's blue in the ear tissue is a marker for vascular permeability. Ears are analyzed by histology, FACS and RT-qPCR. […] In histology a reduced inflammatory infiltrate was seen.

[2] = HaCaT stimulated with PMA/Ionomycin

H-Phe-Pro-[Aib]-OH [Example 13]
IL-1 cytokine concentration ([1]; HaCaT stimulated with IFN-γ): 0 pg/mL | IL-2 cytokine concentration ([1]; HaCaT stimulated with IFN-γ): 0 pg/mL | IL-4 cytokine concentration ([1]; HaCaT stimulated with IFN-γ): 76.13 pg/mL | IL-5 cytokine concentration ([1]; HaCaT stimulated with IFN-γ): 0 pg/mL | IL-6 cytokine concentration ([1]; HaCaT stimulated with IFN-γ): 255.5 pg/mL | IL-9 cytokine concentration ([1]; HaCaT stimulated with IFN-γ): 0 pg/mL | IL-10 cytokine concentration ([1]; HaCaT stimulated with IFN-γ): 7.59 pg/mL | IL-12p70 cytokine concentration ([1]; HaCaT stimulated with IFN-γ): 0 pg/mL | IL-13 cytokine concentration ([1]; HaCaT stimulated with IFN-γ): 0 pg/mL | IL-17 cytokine concentration ([1]; HaCaT stimulated with IFN-γ): 34.2 pg/mL | IL-22 cytokine concentration ([1]; HaCaT stimulated with IFN-γ): 0 pg/mL | TNF-α cytokine concentration ([1]; HaCaT stimulated with IFN-γ): 0 pg/mL | IFN-γ cytokine concentration ([1]; HaCaT stimulated with PBS): 0 pg/mL | IL-1 cytokine concentration ([1]; HaCaT stimulated with PBS): 17.16 pg/mL | IL-2 cytokine concentration ([1]; HaCaT stimulated with PBS): 14.24 pg/mL | IL-4 cytokine concentration ([1]; HaCaT stimulated with PBS): 132.37 pg/mL | IL-5 cytokine concentration ([1]; HaCaT stimulated with PBS): 0 pg/mL | IL-6 cytokine concentration ([1]; HaCaT stimulated with PBS): 74.11 pg/mL | IL-9 cytokine concentration ([1]; HaCaT stimulated with PBS): 0 pg/mL | IL-10 cytokine concentration ([1]; HaCaT stimulated with PBS): 74.67 pg/mL | IL-12p70 cytokine concentration ([1]; HaCaT stimulated with PBS): 0 pg/mL | IL-13 cytokine concentration ([1]; HaCaT stimulated with PBS): 1948.04 pg/mL | IL-17 cytokine concentration ([1]; HaCaT stimulated with PBS): 0 pg/mL | IL-22 cytokine concentration ([1]; HaCaT stimulated with PBS): 0 pg/mL | TNF-α cytokine concentration ([1]; HaCaT stimulated with PBS): 6.94 pg/mL | IFN-γ cytokine concentration [1, 2]: 0 pg/mL | IL-1 cytokine concentration [1, 2]: 0 pg/mL | IL-2 cytokine concentration [1, 2]: 0 pg/mL | IL-4 cytokine concentration [1, 2]: 91.99 pg/mL | IL-5 cytokine concentration [1, 2]: 0 pg/mL | IL-6 cytokine concentration [1, 2]: 216.69 pg/mL | IL-9 cytokine concentration [1, 2]: 0 pg/mL | IL-10 cytokine concentration [1, 2]: 41.86 pg/mL | IL-12p70 cytokine concentration [1, 2]: 0 pg/mL | IL-13 cytokine concentration [1, 2]: 0 pg/mL | IL-17 cytokine concentration [1, 2]: 21.33 pg/mL | IL-22 cytokine concentration [1, 2]: 0 pg/mL | TNF-α cytokine concentration [1, 2]: 0 pg/mL | secretion / expression of pro-inflammatory cytokines (supernatant) ([1]; activated human keratinocytes): decreased expression | concentrations of TNF-α and IL-17 in the serum (Balb/c mice): reduced | mRNA expression of IL-17, IFN-γ, IL-23, IL-36 and IL-22 in lesional skin (Balb/c mice): reduced | size of the rete ridges (Balb/c mice; compared to vehicle control): decreased | clinical score (Balb/c mice; day 9): reduced | mRNA expression of IL-6, IL-17, IFN-γ and TNF-α (primary human T cells): reduced expression | ear thickness (C57BL/6 mice): reduction | inflammatory infiltrate in histology (C57BL/6 mice): reduced | number of petechiae (C57BL/6 mice): reduced number
